Source: paper PMC4802308, “Integrating computational and chemical biology tools in the discovery of antiangiogenic small molecule ligands of FGF2 derived from endogenous inhibitors” (Scientific Reports, 2016)

What was measured:
[1] = biological target: T1, FGF2 (Homo sapiens, UniProt P09038); test: Competition with biotinylated recombinant TSP-1 domain (E123CaG1) for binding to FGF2 (DELFIA); conditions: for IC50: mean ± SE of 3 experiments; for fold more active than the initial query SM27 (competition IC50): vs SM27
T1 construct: purchased R&D Systems, obtained through the NCI-Biological Resources Branch
T1 sequence (P09038 134-288 limits assumed): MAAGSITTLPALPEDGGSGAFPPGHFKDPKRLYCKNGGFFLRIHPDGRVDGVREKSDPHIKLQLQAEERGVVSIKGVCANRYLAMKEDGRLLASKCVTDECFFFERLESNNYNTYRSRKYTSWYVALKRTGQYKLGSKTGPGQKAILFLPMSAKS

[2] = biological target: T1, FGF2; test: SPR direct binding to sensorchip-immobilized FGF2; conditions: single site model, one experiment representative of two, read-out: Kd (dissociation constant) of FGF2/compound interaction
Experimental: SPR measurements were performed on a BIAcore X100 instrument (GE-Healthcare, WI). FGF2 was immobilized on a CM5 sensorchip (GE-Healthcare) as described, allowing the immobilization of 7,365 resonance units (RU) (410 fmol/mm^2 of FGF-2).
Suppl. Table S2. Determination of the affinity (Kd) of the FGF2/compound interactions by
Binding parameters were calculated by the non-linear curve fitting software package BIAevaluation
3.2 using a single site model with correction for mass transfer. Dissociation constant (Kd) values
were derived from the dissociation rate/association ratio. Only sensorgrams whose fitting gave
values of X2 lower than 10 were used {Khalifa, 2001 #213}.

[3] = Dynamic Light Scattering (photon correlation spectroscopy) and Zeta potential analysis of aggregates in solution; type: physicochemical; conditions: for Zeta potential: 1mg/ml solution, in mV (unit assumed)
Text: Binding of 5 water-soluble compounds to FGF2 was further analyzed by surface plasmon resonance (SPR). All the compounds were able to bind FGF2 immobilized to a SPR sensorchip (Suppl. Figure S2). […] In the context of biophysical characterization of compounds, we also tested the formation of aggregates in solution by representative compounds SM.2-16, SM.2-20 and SM.2-23, using Dynamic Light Scattering, which allows measuring nanoparticle size and polydispersion index (by Photocorrelation Spectroscopy) and surface charge (Zeta potential). For all the molecules, at concentrations between 0.03 and 1 mg/ml, the hydrodynamic radius ranged from 2.1 to 2.9 nm, with polydispersity index values between 0.5 and 0.6 (Table 2): no significant variation in the hydrodynamic radius was observed upon decreasing the concentrations, typically indicative of a non-aggregated state. Zeta potential values were strongly negative (indicative of molecule dissociation), ranging from −48 to −52 (Table 2). These findings therefore indicate that the solutions are fairly monodispersed, containing mainly single, charged molecules.
The Photon correlation spectroscopy (PCS) and the Zeta Potential (Zp) values were measured using the Zetasizer Nano ZS (Malvern, Worcestshire, UK), as detailed in Supplementary Material. Data were analyzed by Zetasizer software, version 7.11 (Malvern, Worcestshire, UK).
Photon correlation spectroscopy and Zeta Potential analysis. Photon correlation spectroscopy (PCS) and the Zeta Potential (Zp) values were measured using the Zetasizer Nano ZS (Malvern, Worcestshire, UK) with a fixed 173° scattering angle and a 633 -nm-helium-neon-laser. Data were analyzed by Zetasizer software, version 7.11 (Malvern, Worcestshire, UK). The set up temperature […]
Samples were dissolved in 1 ml of deionized water with 1% HBSS (Hanks’ Balanced Salt solution) to obtain a concentration of about 3mg/ml. For PCS experiments the solution was further diluted with HBSS to the indicated concentration, transferred to a disposable folded capillary cell at room temperature and analyzed 10’ minutes post-diluting.
For Zp measurements, 1mg/ml solution of the compounds were used. Due to the high conductivity of buffer solution precluding electrophoretic mobility measurements, about 3mg of samples were solubilized in 1% HBSS and diluted with suitable volume of deionized water. The solution, was transferred to a disposable folded capillary cell (Malvern, Worcestshire, UK) at room temperature and analyzed 10’ post-diluting. […]

[4] = system: FGF2-induced vessels sprouting, murine aortic rings; test: Aortic rings assay (FGF2-induced vessels sprouting, 3D Matrigel); parameters: species or system C57BL/6 mice; conditions: FGF2 30 ng/ml, small molecules 100 μM
Experimental: Figure 4 Biological activity of the selected hits. (A) Endothelial cell proliferation. BAEC were exposed to FGF2 (5 ng/ml) with increasing concentrations of molecules (3–80 μM). After 72 h, cells were stained and proliferation measured as absorbance. Data are the percentage of control proliferation (in absence of molecules), mean of value from 2 experiments performed in triplicate. (B–D) Aortic ring assay. Sections of murine aortas were embedded in Matrigel, in the presence of FGF2 (30 ng/ml) and the indicated small molecule. The formation of capillary structures sprouting from the rings was analyzed after 7 and 11 days as described in Methods, and the angiogenic response expressed as area covered by the sprouting structures (arbitrary units, mean and SE, n ≥ 6). (B) Antiangiogenic activity of the small molecules (100 μM). (C) Examples of time-dependent and dose-dependent effect of two compounds (SM.2–20 and SM.2–23), tested at 100 (diamond), 50 (circle) and 25 μM (triangle) compared to control (black squares). (D) Representative pictures of sprouting from control and SM.2–23 treated aortic sections. Original magnification, 20x. (E,F) Chorioallantoic membrane assay. FGF2 (200 ng) was administered in the absence or presence of the indicated compound (0.5 μg) on day 8 (n = 10). (E) Angiogenic response is evaluated 4 days later, and expressed as number of vessels entering the sponge (mean and SD). (F) Representative pictures are shown. Original magnification, 50x.
Thoracic aortas were removed from mice, cleaned of perivascular adipose tissue and cut into 1 mm segments. Matrigel (75 μl, BD Biosciences) was added to 96 well plates, and allowed to gellify at 37 °C for 30 min. Aortic sections were added to the wells, and covered with a second layer of Matrigel and DMEM 5% FCS containing FGF2 (30 ng/ml) and the indicated concentration of the compounds. The formation of capillary structures sprouting from the rings was analyzed after 4, 7 and 11 days with an inverted-phase contrast microscope (IX70; Olympus). Images were analyzed with ImageJ 1.48, and the angiogenic response expressed as area covered by the sprouting structures (arbitrary units), substracted the area of the aortic section.

O=C(Nc1ccc2cc(S(=O)(=O)O)cc(O)c2c1)Nc1ccc2cc(S(=O)(=O)O)cc(O)c2c1 [SM27, 6,6'-(carbonylbis(azanediyl))bis(4-hydroxynaphthalene-2-sulfonic acid), reference compound]
IC50 [1]: 3900 ± 230 nM
Kd [2]: 335 nM

COc1ccccc1/N=N/c1c(S(=O)(=O)O)cc2cc(NC(=O)Nc3ccc4c(O)c(/N=N/c5ccc6cc(S(=O)(=O)O)ccc6c5N)c(S(=O)(=O)O)cc4c3)ccc2c1O [SM.2–16, 3-((E)-(1-amino-6-sulfonaphthalen-2-yl)diazenyl)-4-hydroxy-7-(3-(5-hydroxy-6-((E)-(2-methoxyphenyl)diazenyl)-7-sulfonaphthalen-2-yl)ureido)naphthalene-2-sulfonic acid]
IC50 [1]: 590 ± 90 nM
fold more active than the initial query SM27 (competition IC50) [1]: 6–11 fold
Hydrodynamic Radius ([3]; 0.03125 mg/ml): 2.140 nm
PdI (polydispersion index) ([3]; 0.03125 mg/ml): 0.495
Hydrodynamic Radius ([3]; 0.0625 mg/ml): 2.364 nm
PdI (polydispersion index) ([3]; 0.0625 mg/ml): 0.742
Hydrodynamic Radius ([3]; 0.125 mg/ml): 2.149 nm
PdI (polydispersion index) ([3]; 0.125 mg/ml): 0.452
Hydrodynamic Radius ([3]; 0.25 mg/ml): 2.511 nm
PdI (polydispersion index) ([3]; 0.25 mg/ml): 0.663
Hydrodynamic Radius ([3]; 0.5 mg/ml): 2.265 nm
PdI (polydispersion index) ([3]; 0.5 mg/ml): 0.533
Hydrodynamic Radius ([3]; 1 mg/ml): 2.283 nm
PdI (polydispersion index) ([3]; 1 mg/ml): 0.695
Zeta potential [3]: −48.0
inhibition of FGF2-induced vessels sprouting [4]: significantly inhibited
Kd [2]: 125 nM

CC(=O)Nc1ccc(/N=N/c2c(S(=O)(=O)O)cc3cc(NC(=O)Nc4ccc5c(O)c(/N=N/c6ccccc6)c(S(=O)(=O)O)cc5c4)ccc3c2O)cc1 [SM.2–19, 3-((E)-(4-acetamidophenyl)diazenyl)-4-hydroxy-7-(3-(5-hydroxy-6-((E)-phenyldiazenyl)-7-sulfonaphthalen-2-yl)ureido)naphthalene-2-sulfonic acid]
IC50 [1]: 350 ± 30 nM
fold more active than the initial query SM27 (competition IC50) [1]: 6–11 fold
inhibition of FGF2-induced vessels sprouting [4]: not

Cc1ccccc1/N=N/c1c(S(=O)(=O)O)cc2cc(NC(=O)Nc3ccc4c(O)c(/N=N/c5ccc6cc(S(=O)(=O)O)ccc6c5)c(S(=O)(=O)O)cc4c3)ccc2c1O [SM.2–20, 4-hydroxy-7-(3-(5-hydroxy-7-sulfo-6-((E)-(6-sulfonaphthalen-2-yl)diazenyl)naphthalen-2-yl)ureido)-3-((E)-o-tolyldiazenyl)naphthalene-2-sulfonic acid]
IC50 [1]: 500 ± 110 nM
fold more active than the initial query SM27 (competition IC50) [1]: 6–11 fold
Hydrodynamic Radius ([3]; 0.03125 mg/ml): 2.186 nm
PdI (polydispersion index) ([3]; 0.03125 mg/ml): 0.523
Hydrodynamic Radius ([3]; 0.0625 mg/ml): 2.159 nm
PdI (polydispersion index) ([3]; 0.0625 mg/ml): 0.658
Hydrodynamic Radius ([3]; 0.125 mg/ml): 2.172 nm
PdI (polydispersion index) ([3]; 0.125 mg/ml): 0.635
Hydrodynamic Radius ([3]; 0.25 mg/ml): 2.480 nm
PdI (polydispersion index) ([3]; 0.25 mg/ml): 0.789
Hydrodynamic Radius ([3]; 0.5 mg/ml): 2.571 nm
PdI (polydispersion index) ([3]; 0.5 mg/ml): 0.518
Hydrodynamic Radius ([3]; 1 mg/ml): 2.878 nm
PdI (polydispersion index) ([3]; 1 mg/ml): 0.595
Zeta potential [3]: −50.2
inhibition of FGF2-induced vessels sprouting [4]: significantly inhibited
Kd [2]: 318 nM

Cc1cccc(/N=N/c2c(S(=O)(=O)O)cc3cc(NC(=O)Nc4ccc5c(O)c(/N=N/c6ccc7cc(S(=O)(=O)O)ccc7c6)c(S(=O)(=O)O)cc5c4)ccc3c2O)c1 [SM.2–22, 4-hydroxy-7-(3-(5-hydroxy-7-sulfo-6-((E)-(6-sulfonaphthalen-2-yl)diazenyl)naphthalen-2-yl)ureido)-3-((E)-m-tolyldiazenyl)naphthalene-2-sulfonic acid]
IC50 [1]: 420 ± 90 nM
fold more active than the initial query SM27 (competition IC50) [1]: 6–11 fold
inhibition of FGF2-induced vessels sprouting [4]: significantly inhibited
Kd [2]: 39 nM

Cc1ccc(/N=N/c2c(S(=O)(=O)O)cc3cc(NC(=O)Nc4ccc5c(O)c(/N=N/c6ccc7cc(S(=O)(=O)O)ccc7c6)c(S(=O)(=O)O)cc5c4)ccc3c2O)c(C)c1 [SM.2–23, 3-((E)-(2,4-dimethylphenyl)diazenyl)-4-hydroxy-7-(3-(5-hydroxy-7-sulfo-6-((E)-(6-sulfonaphthalen-2-yl)diazenyl)naphthalen-2-yl)ureido)naphthalene-2-sulfonic acid]
IC50 [1]: 530 ± 110 nM
fold more active than the initial query SM27 (competition IC50) [1]: 6–11 fold
Hydrodynamic Radius ([3]; 0.0625 mg/ml): 2.370 nm
PdI (polydispersion index) ([3]; 0.0625 mg/ml): 0.677
Hydrodynamic Radius ([3]; 0.125 mg/ml): 2.765 nm
PdI (polydispersion index) ([3]; 0.125 mg/ml): 0.557
Hydrodynamic Radius ([3]; 0.25 mg/ml): 2.951 nm
PdI (polydispersion index) ([3]; 0.25 mg/ml): 0.59
Hydrodynamic Radius ([3]; 0.5 mg/ml): 2.597 nm
PdI (polydispersion index) ([3]; 0.5 mg/ml): 0.539
Hydrodynamic Radius ([3]; 1 mg/ml): 2.877 nm
PdI (polydispersion index) ([3]; 1 mg/ml): 0.545
Zeta potential [3]: −52.2
inhibition of FGF2-induced vessels sprouting [4]: significantly inhibited
Kd [2]: 93 nM
